In patent US6576619B2 (CV Therapeutics, Inc., priority 1999, dated 2003):

Tests used:
Rat Heart Rate [1] = assay: Effect on rat heart rate (telemetry) after administration of pro-drug; assay type: in vivo, Sprague Dawley rats; conditions: for decrease in heart rate: oral gavage, dose of 0.5 mg/kg
adenosine A1 = target: T1, adenosine A1 (Homo sapiens, UniProt P30542); conditions: from Snowdy et al. abstract and WO 98/08855; cited from earlier work
T1 sequence (P30542 1-326): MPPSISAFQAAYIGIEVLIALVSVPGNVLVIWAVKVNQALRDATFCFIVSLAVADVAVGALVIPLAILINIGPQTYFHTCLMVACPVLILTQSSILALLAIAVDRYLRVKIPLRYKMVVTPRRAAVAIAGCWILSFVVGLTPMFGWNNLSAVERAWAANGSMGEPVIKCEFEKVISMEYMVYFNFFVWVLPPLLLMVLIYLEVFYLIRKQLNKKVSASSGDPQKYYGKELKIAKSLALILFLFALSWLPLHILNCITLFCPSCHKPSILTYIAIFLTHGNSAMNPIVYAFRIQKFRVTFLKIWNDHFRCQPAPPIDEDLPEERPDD

Rat Heart Rate [2] = assay: Effect on rat heart rate (telemetry) after administration of pro-drug; assay type: in vivo, Sprague Dawley rats; design: key to Effect on Heart Rate: +++: Heart Rate decreased by 100-150 BPM; ++: Heart Rate decreased by 50-100 BPM; +: Heart rate decreased by 50 BPM; =/−: No reproducible effect on Heart Rate.; −: No effect on Heart Rate; conditions: for Effect on Heart Rate: rat, oral gavage, 500 μGram dose, average of 3-6 rats
Description: Adult male and female Sprague Dawley rats were implanted with transducer/emitter modules of the Data Science Telemetry system (St. Paul, Minn.) to allow continuous monitoring of heart rate (HR). At the start of the experiment, basal HR was determine for 1 hour prior to gavage. A 500 μg dose of compounds prepared according to Examples 1-4 was administered to by oral gavage. The compounds were each prepared as stock solutions in DMSO and diluted at least 1:1000 in water for gavage. Following administration, HR was determined every five minutes. In these experiments, 3-6 rats were used to test each compounds. An average of the HR results are reported in Table 1, below and in FIGS. 1A, 2A, 3A and 4A.
Compound 1, identified above is an A1 Agonist. […] Thus, this in vivo assay is a measure of effect on heart rate following the oral administration of a pro-drug of a potent adenosine A1 agonist. The plasma concentrations of compound 1 was determined over time by cannulating the jugular of a separate specimen for subsequent blood collection. After a 24 hour recovery period, a pre-dose baseline HR as determined followed by gavage or IP injection of a compound being tested. Blood samples were taken and the concentration of compound 1 in the plasma was determined using LC/MS/MS methodologies.

SMILES | Effect on Heart Rate (Rat Heart Rate [2]) | also measured
OC[C@H]1O[C@@H](n2cnc3c(N[C@@H]4CCOC4)ncnc32)[C@H](O)[C@@H]1O [Compound 1] |  | effect on heart rate of the sinus rhythm (Rat Heart Rate [1]; rat, IP, 0.025 mg): lowers the heart rate; adenosine A1 agonist activity (adenosine A1): potent, selective adenosine A1 agonist
CC(=O)OC[C@H]1OC(n2cnc3c(N[C@@H]4CCOC4)ncnc32)[C@H](OC(C)=O)[C@@H]1OC(C)=O (stereo partly drawn) [Compound 2, (5-{6-[((3R)oxolan-3-yl)amino]purin-9-yl}(2R, 3R, 4R)-3,4-diacetyloxyoxolan-2-yl)methyl acetate] | +++ (Heart Rate decreased by 100-150 BPM) | reversibility of effect on heart rate by theophylline (Rat Heart Rate [1]; rats, oral gavage 0.5 mg/kg, then theophylline 7.5 mg/kg): reversible; decrease in heart rate (Rat Heart Rate [1]; rats): 100-150 beats per minute
CCCC(=O)OC[C@H]1OC(n2cnc3c(N[C@@H]4CCOC4)ncnc32)[C@H](OC(=O)CCC)[C@@H]1OC(=O)CCC (stereo partly drawn) [Compound 4, (5-{6-[((3R)oxolan-3-yl)amino]purin-9-yl}(2R, 3R, 4R)-3,4-dibutanoyloxyoxolan-2-yl)methyl butanoate] | + (Heart rate decreased by 50 BPM) | 
CC(C)C(=O)OC[C@H]1OC(n2cnc3c(N[C@@H]4CCOC4)ncnc32)[C@H](OC(=O)C(C)C)[C@@H]1OC(=O)C(C)C (stereo partly drawn) [Compound 6, (5-{6-[((3R)oxolan-3-yl)amino]purin-9-yl}(2R, 3R, 4R)-3,4-bis(2-methylpropanoyloxy)oxolan-2-yl)methyl 2-methylpropanoate] | ++ (Heart Rate decreased by 50-100 BPM) | 
CCC(=O)OC[C@H]1OC(n2cnc3c(N[C@@H]4CCOC4)ncnc32)[C@H](OC(=O)CC)[C@@H]1OC(=O)CC (stereo partly drawn) [Compound 7, (2-{6-[((3R)oxolan-3-yl)amino]purin-9-yl}(3R, 4R, 5R)-4-propanoyloxy-5-(propanoyloxymethyl)oxolan-3-yl propanoate] | + (Heart rate decreased by 50 BPM) | 
O=C(OC[C@H]1OC(n2cnc3c(N[C@@H]4CCOC4)ncnc32)[C@H](OC(=O)C2CCCC2)[C@@H]1OC(=O)C1CCCC1)C1CCCC1 (stereo partly drawn) [Compound 8, 2-{6-[((3R)oxolan-3-yl)amino]purin-9-yl}(3R, 4R, 5R)-4-cyclopentylcarbonyloxy-5-(cyclopentylcarbonyloxymethyl)oxolan-3-yl cyclopentanecarboxylate] | +++ (Heart Rate decreased by 100-150 BPM) | decrease in heart rate (Rat Heart Rate [1]; rats): 100-150 beats per minute
CCOCC(=O)OC[C@H]1OC(n2cnc3c(N[C@@H]4CCOC4)ncnc32)[C@H](OC(=O)COCC)[C@@H]1OC(=O)COCC (stereo partly drawn) [Compound 9, 2-{6-[((3R)oxolan-3-yl)amino]purin-9-yl}(3R, 4R, 5R)-4-(2-ethoxyacetyloxy)-5-[(2-ethoxyacetyloxy)methyl]oxolan-3-yl 2-ethoxyacetate] | ++ (Heart Rate decreased by 50-100 BPM) | 
O=C(COCc1ccccc1)OC[C@H]1OC(n2cnc3c(N[C@@H]4CCOC4)ncnc32)[C@H](OC(=O)COCc2ccccc2)[C@@H]1OC(=O)COCc1ccccc1 (stereo partly drawn) [Compound 10, (5-{6-[((3R)oxolan-3-yl)amino]purin-9-yl}(2R, 3R, 4R)-3,4-bis[2-(phenylmethoxy)acetyloxy]oxolan-2-yl)methyl 2-(phenylmethoxy)acetate] | + (Heart rate decreased by 50 BPM) | 
O=C(Cc1ccc([N+](=O)[O-])cc1)OC[C@H]1OC(n2cnc3c(N[C@@H]4CCOC4)ncnc32)[C@H](OC(=O)Cc2ccc([N+](=O)[O-])cc2)[C@@H]1OC(=O)Cc1ccc([N+](=O)[O-])cc1 (stereo partly shown) [Compound 11] | − | 
NCC(=O)OC[C@H]1OC(n2cnc3c(N[C@@H]4CCOC4)ncnc32)[C@H](OC(=O)CN)[C@@H]1OC(=O)CN (stereo partly drawn) [Compound 12, 2-{6[((3R)oxolan-3-yl)amino]purin-9-yl}(3R, 4R, 5R)-4-(2-aminoacetyloxy)-5-[(2-aminoacetyloxy)methyl]oxolan-3-yl 2-aminoacetate] | − | 
O=C(Cc1ccccc1)OC[C@H]1OC(n2cnc3c(N[C@@H]4CCOC4)ncnc32)[C@H](OC(=O)Cc2ccccc2)[C@@H]1OC(=O)Cc1ccccc1 (stereo partly drawn) [Compound 13, (5-{6-[((3R)oxolan-3-yl)amino]purin-9-yl}(2R, 3R, 4R)-3,4-bis(2-phenylethanoyloxy)oxolan-2-yl)methyl 2-phenylethananoate] | − | 
O=C(OC[C@H]1OC(n2cnc3c(N[C@@H]4CCOC4)ncnc32)[C@H](OC(=O)c2cccnc2)[C@@H]1OC(=O)c1cccnc1)c1cccnc1 (stereo partly drawn) [Compound 14, (5-{6-[((3R)oxolan-3-yl)amino]purin-9-yl}(2R, 3R, 4R)-3,4-di(3-pyridylcarbonyloxy)oxolan-2-yl)methyl pyridine-3-carboxylate] | + (Heart rate decreased by 50 BPM) | 
CC(=O)OC[C@H]1OC(n2cnc3c(N[C@@H]4CCOC4)ncnc32)[C@H](OC(=O)C(C)C)[C@@H]1OC(=O)C(C)C (stereo partly drawn) [Compound 15, 2-{6-[((3R)oxolan-3-yl)amino]purin-9-yl}(3R, 4R, 5R)-5-(acetyloxymethyl)-4-(2-methylpropanoyloxy)oxolan-3-yl 2-methylpropanoate] | +++ (Heart Rate decreased by 100-150 BPM) | decrease in heart rate (Rat Heart Rate [1]; rats): 100-150 beats per minute
CC(=O)OC[C@H]1OC(n2cnc3c(NC4CCOC4)ncnc32)[C@H](OC(=O)C2CCCC2)[C@@H]1OC(=O)C1CCCC1 (stereo partly shown) [Compound 16] | + (Heart rate decreased by 50 BPM) | 
CC(C)C(=O)O[C@@H]1[C@@H](COC(=O)C2CCCC2)OC(n2cnc3c(N[C@@H]4CCOC4)ncnc32)[C@@H]1OC(=O)C(C)C (stereo partly drawn) [Compound 17, 2-{6-[((3R)oxolan-3-yl)amino]purin-9-yl}(3R, 4R, 5R)-5-(cyclopentylcarbonyloxymethyl)-4-(2-methylpropanoyloxy)oxolan-3-yl 2-methylpropanoate] | − | 
CC(=O)O[C@@H]1[C@@H](COC(=O)C2CCCC2)OC(n2cnc3c(N[C@@H]4CCOC4)ncnc32)[C@@H]1OC(C)=O (stereo partly drawn) [Compound 18, 2-{6-[((3R)oxolan-3-yl)amino]purin-9-yl}(3R, 4R, 5R)-4-acetyloxy-5-(cyclopentylcarbonyloxymethyl)oxolan-3-yl acetate] | + (Heart rate decreased by 50 BPM) | 
CC(=O)O[C@@H]1[C@@H](COC(=O)C(C)C)OC(n2cnc3c(N[C@@H]4CCOC4)ncnc32)[C@@H]1OC(C)=O (stereo partly drawn) [Compound 19, (5-{6-[((3R)oxolan-3-yl)amino]purin-9-yl}(2R, 3R, 4R)-3,4-diacetyloxyoxolan-2-yl)methyl 2-methylpropanoate] | +++ (Heart Rate decreased by 100-150 BPM) | decrease in heart rate (Rat Heart Rate [1]; rats): 100-150 beats per minute
CC(C)C(=O)OC[C@H]1OC(n2cnc3c(NC4CCOC4)ncnc32)[C@H](OC(=O)C2CCCC2)[C@@H]1OC(=O)C1CCCC1 (stereo partly shown) [Compound 20] | − | 
CC(=O)O[C@@H]1[C@H](OC(C)=O)[C@@H](COC(=O)[C@@H](N)C(C)C)O[C@H]1n1cnc2c(N[C@@H]3CCOC3)ncnc21 [Compound 21, (5-{6-[((3R)oxolan-3-yl)amino]purin-9-yl}(2R, 3R, 4R)-3,4-diacetyloxyoxolan-2-yl)methyl (2S)-2-amino-3-methylbutanoate] | + (Heart rate decreased by 50 BPM) | 
CC(C)[C@H](N)C(=O)OC[C@H]1O[C@@H](n2cnc3c(N[C@@H]4CCOC4)ncnc32)[C@H](O)[C@@H]1O [Compound 28, (5-{6-[((3R)oxolan-3-yl)amino]purin-9-yl}(2R, 3S, 4R)-3,4-dihydroxyoxolan-2-yl)methyl (2S)-2-amino-3-methylbutanoate] | − | 
CC(=O)O[C@@H]1[C@@H](CO)OC(n2cnc3c(N[C@@H]4CCOC4)ncnc32)[C@@H]1OC(C)=O (stereo partly drawn) [Compound 31, 2-{6-[((3R)oxolan-3-yl)amino]purin-9-yl}(3R, 4R, 5R)-4-acetyloxy-5-(hydroxymethyl)oxolan-3-yl acetate] |  | activity upon oral dosing in rats (Rat Heart Rate [2]; rats, oral dosing, compared with the triple pro-drugs (Table 1)): lower activity
CC(=O)OC[C@H]1OC(n2cnc3c(N[C@@H]4CCOC4)ncnc32)[C@H](O)[C@@H]1O (stereo partly drawn) [Compound 34, (5-{6-[((3R)oxolan-3-yl)amino]purin-9-yl}(3S, 2R, 4R)-3,4-dihydroxyoxolan-2-yl)methyl acetate] | − | 
